In patent US4602025A, “Aromatase inhibitors” (Eli Lilly and Company, priority 1984, dated 1986):

Legend:
aromatase = target: T1, aromatase (Rattus norvegicus, UniProt P22443); assay: biochemical; conditions: rat ovarian microsomes; substrate (androstenedione) concentration 0.1 μM; inhibitors tested between 0.005 and 10 μM
T1 sequence (P22443 1-508): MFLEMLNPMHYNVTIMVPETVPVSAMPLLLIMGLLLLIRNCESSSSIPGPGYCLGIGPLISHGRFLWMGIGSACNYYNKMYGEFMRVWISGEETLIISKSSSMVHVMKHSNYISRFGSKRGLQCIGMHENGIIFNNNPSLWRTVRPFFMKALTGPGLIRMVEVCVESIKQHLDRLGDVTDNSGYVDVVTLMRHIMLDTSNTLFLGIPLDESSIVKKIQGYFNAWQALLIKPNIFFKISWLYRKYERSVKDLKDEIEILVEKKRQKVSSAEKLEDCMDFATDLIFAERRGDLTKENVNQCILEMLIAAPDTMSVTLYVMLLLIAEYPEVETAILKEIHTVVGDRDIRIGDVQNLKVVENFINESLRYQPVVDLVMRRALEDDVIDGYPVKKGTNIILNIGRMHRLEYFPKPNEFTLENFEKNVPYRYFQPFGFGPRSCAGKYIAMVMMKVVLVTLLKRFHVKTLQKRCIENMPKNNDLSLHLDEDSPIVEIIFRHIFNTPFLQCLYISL
Method: In this test system, ovarian microsomes are obtained from rats treated with pregnant mares serum gonadotropin. Test compounds are added to reaction vials containing 0.1 μM 4-androstene-3,17-dione, 100,000 dpm 1,2[^3 H]-androstenedione, the microsomes and a NADPH generating system.

breast cancer = conditions: known aromatase inhibitors; Cancer Research, Vol. 42, Suppl. 8:3261s (1982); cited from earlier work

Row | Structure (SMILES) | EC50 (aromatase) [nM] | effect in treatment of breast cancer (breast cancer)
1 | c1ccc(C(c2ccccc2)(c2ccns2)n2cncn2)cc1 [Example 2, 5-(Diphenyl-1H-1,2,4-triazol-1-ylmethyl)-isothiazole] | 257 | –
2 | Clc1ccc(C(c2ccc(Cl)cc2)(c2ccns2)n2cncn2)cc1 [Example 7, 1-[Bis(4-chlorophenyl)-5-isothiazolemethyl]-1H-1,2,4-triazole] | 51 | –
3 | CCC1(c2ccc(N)cc2)CCC(=O)NC1=O (stereo not shown) [aminoglutethimide] | – | beneficial effect
4 | C[C@]12C=CC(=O)C=C1CC[C@@H]1[C@@H]2CC[C@]2(C)OC(=O)CC[C@@H]12 [testolactone] | – | beneficial effect
